In PubChem BioAssay (NCI):
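Results reflect a 48-hour exposure of cells in 96-well plates to compound at five concentrations. GI50 is the concentration that inhibits growth by half. TGI denotes the concentration required for complete inhibition of growth.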

Columns and labels:
Assay in all cases: inhibition of tumour cell growth, NCI panel, 48 h
[1] = test system: T-47D breast
[2] = test system: SF-539 CNS
[3] = test system: HS 578T breast
[4] = test system: NCI/ADR-RES ovarian
[5] = test system: CAKI-1 renal
[6] = test system: BT-549 breast
[7] = test system: MDA-MB-231 breast

`O=C1OC(OCC#CCOC2OC(=O)C(Cl)=C2Cl)C(Cl)=C1Cl` (configuration not stated) showed a TGI [1] of 36.7 µM, a TGI [2] of 31.8 µM and a TGI [3] of 50.5 µM. For the same compound, the TGI [4] was 75.3 µM.
In the case of `ClCc1ccc(Cn2cnc3c(Cl)nc(Cl)nc32)cc1`, the GI50 [1] is reported as 2.18 µM, the TGI [1] is reported as 5.44 µM and the GI50 [2] is reported as 17.1 µM. For the same compound, the TGI [2] was 31.1 µM, the GI50 [3] was 2.13 µM and the TGI [3] was 5.77 µM. The GI50 [4] was 16.5 µM, the TGI [4] was over 100 µM and the GI50 [5] was 9.17 µM. It also gave a TGI [5] of 21.3 µM, a GI50 [6] of 15.8 µM and a TGI [6] of 29.8 µM. It also gave a GI50 [7] of 1.81 µM and a TGI [7] of 3.63 µM.
`Clc1nc(Cl)c2ncn(Cc3ccc(Cn4cnc5c(Cl)nc(Cl)nc54)cc3)c2n1` gave a GI50 [1] of 12.4 µM, a TGI [1] of over 36.7 µM and a GI50 [2] of 5.04 µM. It also gave a TGI [2] of 20.7 µM, a TGI [3] of over 40.2 µM and a GI50 [4] of 7.64 µM. It also gave a TGI [4] of 28.8 µM, a GI50 [5] of 13.6 µM and a TGI [5] of 27.8 µM. The TGI [6] was 18.9 µM, the GI50 [7] was 3.23 µM and the TGI [7] was 22.4 µM.
With `Cc1cc(OCc2nnc3n2N=C(c2ccc(Cl)cc2Cl)CS3)ccc1Cl` the GI50 [1] was 40.5 µM, the TGI [1] was over 100 µM and the GI50 [2] was over 100 µM. It also gave a TGI [2] of over 100 µM, a GI50 [3] of 37.9 µM and a TGI [3] of over 100 µM. The GI50 [4] was 51.8 µM, the TGI [4] was over 100 µM and the GI50 [5] was 44.2 µM. It also gave a TGI [5] of over 100 µM, a GI50 [6] of 25.9 µM and a TGI [6] of over 100 µM. For the same compound, the GI50 [7] was 30.8 µM and the TGI [7] was 90.4 µM.
Work on `CN1C(Cl)=NS(=O)(=O)c2ccccc21` yielded a TGI [1] of over 100 µM, a TGI [2] of over 100 µM and a TGI [3] of over 100 µM. It also gave a TGI [4] of over 100 µM, a TGI [5] of 36.6 µM and a TGI [6] of over 100 µM. The TGI [7] was over 100 µM.
Compound `Cc1nc(Nc2nc3ccccc3o2)nc(-c2cccc([N+](=O)[O-])c2)c1C(=O)Nc1ccc(F)c(Cl)c1` has a GI50 [1] of 1.41 µM, a TGI [1] of 9.18 µM and a GI50 [2] of 3.52 µM. It also gave a TGI [2] of over 100 µM, a GI50 [3] of 2.87 µM and a TGI [3] of 38.8 µM. It also gave a GI50 [4] of 2.33 µM, a TGI [4] of 10.5 µM and a GI50 [6] of 3.08 µM. It also gave a TGI [6] of 68.4 µM, a GI50 [7] of 1.88 µM and a TGI [7] of 4.82 µM.
`NCCSCCc1ccccc1` was tested, and the TGI [1] was over 100 µM, the TGI [2] was over 100 µM and the TGI [3] was over 100 µM. It also gave a TGI [4] of over 100 µM, a TGI [5] of over 100 µM and a TGI [6] of over 100 µM. For the same compound, the TGI [7] was over 100 µM.
For `COc1ccc(Nc2cc(C)nc(N3CCN(c4ccnc5cc(Cl)ccc45)CC3)n2)cc1`, the GI50 [1] was 1.99 µM, the TGI [1] was 6.59 µM and the GI50 [3] was 4.04 µM. It also gave a TGI [3] of over 100 µM, a GI50 [4] of 2.48 µM and a TGI [4] of 8.43 µM. For the same compound, the GI50 [5] was 2.71 µM, the TGI [5] was over 100 µM and the GI50 [6] was 2.22 µM. The TGI [6] was 8.06 µM, the GI50 [7] was 2.31 µM and the TGI [7] was over 100 µM.
For `CNC(=O)OCC1C2=C(C(=O)C(C)=C(N)C2=O)N2CC3C(N3C)C12OC` (configuration not stated), the TGI [1] was over 100 µM, the TGI [2] was 87.5 µM and the TGI [4] was over 100 µM. The TGI [5] was 32.7 µM, the TGI [6] was over 100 µM and the TGI [7] was over 100 µM.
`N#Cc1cc(S(=O)(=O)Nc2nc3ccccc3s2)c(SCc2ccccc2)cc1Cl` gave a GI50 [1] of 22.8 µM, a TGI [1] of 73.7 µM and a GI50 [2] of 17.4 µM. It also gave a TGI [2] of 34.8 µM, a GI50 [3] of 22.4 µM and a TGI [3] of 53.8 µM. It also gave a GI50 [4] of 30.6 µM, a TGI [4] of over 100 µM and a GI50 [5] of 18.6 µM. It also gave a TGI [5] of 45 µM, a GI50 [6] of 20 µM and a TGI [6] of 48.9 µM. For the same compound, the GI50 [7] was 26.7 µM and the TGI [7] was 82.6 µM.
Compound `Cc1cccc(Nc2cnc(N)nc2N)c1` has a TGI [1] of over 100 µM, a TGI [2] of over 100 µM and a TGI [4] of over 100 µM. For the same compound, the TGI [5] was over 100 µM and the TGI [7] was over 100 µM.
With `CC1=C(/C=C/C(C)=C/C=C/C(C)=C/CO)C(C)(C)CCC1` the TGI [1] was 96.2 µM, the TGI [2] was 34.3 µM and the TGI [4] was 43.1 µM. For the same compound, the TGI [5] was over 100 µM and the TGI [7] was 78.5 µM.
Work on `O=S(=O)(NCCNc1nccc(-c2c(-c3ccc(F)cc3)nc3sccn23)n1)c1ccccc1` yielded a GI50 [1] of 1.79 µM, a TGI [1] of 27.3 µM and a GI50 [2] of 19 µM. For the same compound, the TGI [2] was over 100 µM, the GI50 [3] was 13.6 µM and the TGI [3] was over 100 µM. It also gave a GI50 [4] of 5.6 µM, a TGI [4] of over 100 µM and a GI50 [5] of 3.24 µM. The TGI [5] was over 100 µM, the GI50 [7] was 16.6 µM and the TGI [7] was over 100 µM.
Work on `COc1ccc(OC)c(Nc2nc(-c3c(C)nc4sccn34)cs2)c1` yielded a GI50 [1] of 5.43 µM, a TGI [1] of over 100 µM and a GI50 [2] of 48.8 µM. The TGI [2] was over 100 µM, the GI50 [3] was 5.3 µM and the TGI [3] was over 100 µM. For the same compound, the GI50 [4] was 15 µM, the TGI [4] was over 100 µM and the GI50 [6] was 11 µM. The TGI [6] was over 100 µM, the GI50 [7] was over 100 µM and the TGI [7] was over 100 µM.
`O=C1OC(c2ccccc2)=N/C1=C\c1cccc(F)c1` showed a TGI [1] of over 100 µM, a TGI [3] of over 100 µM and a TGI [4] of 69.9 µM. The TGI [5] was over 100 µM, the TGI [6] was over 100 µM and the TGI [7] was over 100 µM.
`COc1ccc(Nc2c3ccccc3nc3[nH]c4ccccc4c23)cc1` showed a GI50 [2] of 6.5 µM, a TGI [2] of 20 µM and a GI50 [3] of 21 µM. The TGI [3] was over 50 µM, the GI50 [4] was 18.9 µM and the TGI [4] was over 50 µM. The GI50 [5] was 14 µM, the TGI [5] was over 50 µM and the GI50 [6] was 13.7 µM. For the same compound, the TGI [6] was over 50 µM, the GI50 [7] was 14.5 µM and the TGI [7] was over 50 µM.
Compound `CN(/N=N/c1nc(OCc2ccccc2)c2[nH]cnc2n1)C(=O)Oc1ccc([N+](=O)[O-])cc1` has a GI50 [1] of 14.2 µM, a TGI [1] of 32.7 µM and a GI50 [2] of 9.88 µM. The TGI [2] was 28.8 µM, the GI50 [3] was 8.61 µM and the TGI [3] was 29.6 µM. It also gave a GI50 [5] of 10.9 µM, a TGI [5] of 35.4 µM and a GI50 [6] of 7.35 µM. It also gave a TGI [6] of 20.4 µM, a GI50 [7] of 5.78 µM and a TGI [7] of 18.6 µM.
`O=C1CC(c2ccc(Cl)cc2)Oc2ccccc21` (configuration not stated) showed a TGI [1] of over 100 µM, a TGI [2] of 26.1 µM and a TGI [3] of 54.8 µM. The TGI [4] was 50.6 µM, the TGI [5] was 77.3 µM and the TGI [7] was 53.9 µM.
